Measurements published in ChEMBL document CHEMBL4819108, “A trio of quinoline-isoniazid-phthalimide with promising antiplasmodial potential: Synthesis, in-vitro evaluation and heme-polymerization inhibition studies” (Bioorg Med Chem, 2021).
pIC50: −log10 of the molar value.

Legend:
[1] = system: Plasmodium falciparum; assay: Antiplasmodial activity against CQ-resistant Plasmodium falciparum W2; assay type: functional, organism-based
[2] = Selectivity index, ratio of IC50 for African green monkey Vero cells to IC50 for antiplasmodial activity against CQ-resistant Plasmodium falciparum W2; assay type: toxicity; conditions: read-out: Ratio IC50
[3] = system: Heme; assay: Binding affinity to monomeric heme in MES buffer at pH 5.6
[4] = system: Heme; assay: Binding affinity to monomeric heme in HEPES buffer at pH 7.4
[5] = system: Plasmodium falciparum; assay: Antimalarial activity against Plasmodium falciparum 7G8; assay type: functional, organism-based
[6] = system: Vero; assay: Cytotoxicity against African green monkey Vero cells; assay type: cell-based; conditions: Chlorocebus sabaeus
[7] = system: Plasmodium falciparum; assay: Antimalarial activity against Plasmodium falciparum RKL9 infected in human RBC assessed as reduction in parasite growth incubated for 24 hrs by giemsa staining based assay; assay type: functional, organism-based; conditions: RKL9, Erythrocyte

SMILES	pIC50 [1]	selectivity ratio [2]	pIC50 [6]	other results
O=C(O)c1ccc2c(c1)C(=O)N(CCCCNc1ccnc3cc(Cl)ccc13)C2=O	7.29	789	–	–
O=C(NCCCCCCNc1ccnc2cc(Cl)ccc12)c1ccc2c(c1)C(=O)N(NC(=O)c1ccncc1)C2=O	7.94	2900	–	log K [3]: 6.39; log K [4]: 6.66
O=C(N/N=C/c1c(O)ccc2ccccc12)c1ccncc1	–	–	–	pIC50 [5]: 7.37
O=C(O)c1ccc2c(c1)C(=O)N(CCCCCCCCNc1ccnc3cc(Cl)ccc13)C2=O	7.36	4820	< 3.68	–
O=C(CN1C(=O)c2ccccc2C1=O)NNC(=O)c1ccncc1	< 5.00	30.8	< 3.51	–
O=C(NCCCNc1ccnc2cc(Cl)ccc12)c1ccc2c(c1)C(=O)N(NC(=O)c1ccncc1)C2=O	6.36	366	–	–
O=C(NN1C(=O)c2ccc(C(=O)OCCNc3ccnc4cc(Cl)ccc34)cc2C1=O)c1ccncc1	6.09	239	< 3.71	–
COc1ccc(/C=N/NC(=O)c2ccncc2)cc1O	–	–	–	pIC50 [7]: 7.40
O=C(NNC(=O)c1ccc2c(c1)C(=O)N(CCNc1ccnc3cc(Cl)ccc13)C2=O)c1ccncc1	5.85	138	< 3.71	–
O=C(O)c1ccc2c(c1)C(=O)N(CCCNc1ccnc3cc(Cl)ccc13)C2=O	6.30	487	–	–
O=C(NNC(=O)c1ccc2c(c1)C(=O)N(CCCCCCNc1ccnc3cc(Cl)ccc13)C2=O)c1ccncc1	< 5.00	12.7	–	–
O=C(NCCCCNc1ccnc2cc(Cl)ccc12)c1ccc2c(c1)C(=O)N(NC(=O)c1ccncc1)C2=O	6.60	58.1	–	–
O=C(N/N=C/C=C/c1ccccc1)c1ccncc1	–	–	–	pIC50 [7]: 7.18
O=C(O)c1ccc2c(c1)C(=O)N(CCNc1ccnc3cc(Cl)ccc13)C2=O	6.37	601	< 3.60	–
O=C(NNC(=O)c1ccc2c(c1)C(=O)N(CCCCNc1ccnc3cc(Cl)ccc13)C2=O)c1ccncc1	7.58	627	–	–
O=C(NN1C(=O)c2ccc(C(=O)OCCCNc3ccnc4cc(Cl)ccc34)cc2C1=O)c1ccncc1	5.42	50	< 3.72	–
O=C(NNC(=O)c1ccc2c(c1)C(=O)N(CCCNc1ccnc3cc(Cl)ccc13)C2=O)c1ccncc1	6.38	289	–	–
O=C(NCCNc1ccnc2cc(Cl)ccc12)c1ccc2c(c1)C(=O)N(NC(=O)c1ccncc1)C2=O	6.35	144	–	–
O=C(NNC(=O)c1ccc(N2C(=O)c3ccccc3C2=O)cc1)c1ccncc1	< 5.00	25.8	< 3.59	–
O=C(NCCCCCCCCNc1ccnc2cc(Cl)ccc12)c1ccc2c(c1)C(=O)N(NC(=O)c1ccncc1)C2=O	7.03	1790	< 3.78	–
O=C(NNC(=O)c1ccc2c(c1)C(=O)N(CCCCCCCCNc1ccnc3cc(Cl)ccc13)C2=O)c1ccncc1	7.36	2970	–	–
O=C(O)c1ccc2c(c1)C(=O)N(CCCCCCNc1ccnc3cc(Cl)ccc13)C2=O	7.52	805	–	–
O=C(N/N=C/c1ccc(O)cc1)c1ccncc1	–	–	–	pIC50 [7]: 7.37
O=C(NN1C(=O)c2ccc(N3CCN(c4ccnc5cc(Cl)ccc45)CC3)cc2C1=O)c1ccncc1	5.89	338	< 3.36	–
